{"source": "patent US20070203325A1", "about": "“Integrase-dirived HIV-inhibiting agents” (priority 2006, published 2007)", "key": {"HIV-1 NL4.3-Nef+/GFP+ [1]": {"system": "HIV-1 NL4.3-Nef+/GFP+", "experiment": "Infection of HeLa-β-Gal-CD4/CCR5 cells by virus from producer cells expressing the IN C-terminal domain, MAGI assay", "format": "cell-based", "conditions": "viruses produced by 293T cells expressing the protein, 48 h post-infection"}, "HIV-1 NL4.3-Nef+/GFP+ [2]": {"system": "HIV-1 NL4.3-Nef+/GFP+", "experiment": "Infection of MT4 cells by virus from producer cells expressing the IN C-terminal domain, GFP-positive cell count", "format": "cell-based", "conditions": "viruses produced by 293T cells expressing the protein, 48 h post-infection"}}}
{"substance": "IN C-terminal domain: T7-tagged HIV-1 integrase C-terminal domain 205-288 (SEQ ID NO:2) expressed in viral producer cells", "values": [{"measurement": "virus infection of HeLa-β-Gal-CD4/CCR5 cells", "setting": "HIV-1 NL4.3-Nef+/GFP+ [1]", "value": "significantly impaired"}, {"measurement": "virus infection of MT4 cells", "setting": "HIV-1 NL4.3-Nef+/GFP+ [2]", "value": "significantly impaired"}]}
